Assay results taken from BindingDB's records for doi:10.1021/jm500759v (Griffith University, 2014).

Assay: Inhibition of neuraminidase activity of human parainfluenza virus 1 C35 hemagglutinin-neuraminidase pre-incubated for 20 mins before MUN substrate by methylumbelliferone release based fluorescence assay

Which IC50 does the source give for `CC(CO)C(=O)N[C@H]1[C@H]([C@H](O)[C@H](O)CO)OC(C(=O)O)=C[C@@H]1N=[N+]=[N-]` (stereo partly drawn) here?
Its IC50 is 9.49 µM.

For `CCC(C)C(=O)N[C@H]1[C@H]([C@H](O)[C@H](O)CO)OC(C(=O)O)=C[C@@H]1N=[N+]=[N-]` (stereo partly drawn), which IC50 is on record?
Its IC50 is 1.58 µM.

For `C/C=C(\C)C(=O)N[C@H]1[C@H]([C@H](O)[C@H](O)CO)OC(C(=O)O)=C[C@@H]1N=[N+]=[N-]`, which IC50 is on record?
The IC50 was 7.76 µM.

With `CC(C)C(=O)N[C@H]1[C@H]([C@H](O)[C@H](O)CO)OC(C(=O)O)=C[C@@H]1N=[N+]=[N-]` as the compound, how does the IC50 read?
The IC50 was 0.5 µM.

For `CC(=O)N[C@H]1[C@H]([C@H](O)[C@H](O)CO)OC(C(=O)O)=C[C@@H]1N`, which IC50 is on record?
Its IC50 is over 1000 µM.

Which IC50 does the source give for `CC(O)C(=O)N[C@H]1[C@H]([C@H](O)[C@H](O)CO)OC(C(=O)O)=C[C@@H]1N=[N+]=[N-]` (stereo partly drawn) here?
Its IC50 is 68.1 µM.

With `[N-]=[N+]=N[C@H]1C=C(C(=O)O)O[C@@H]([C@H](O)[C@H](O)CO)[C@@H]1NC(=O)C1CC1` as the compound, how does the IC50 read?
Its IC50 is 0.91 µM.

For `CC(C)C(=O)N[C@H]1[C@H]([C@H](O)[C@H](O)CO)OC(C(=O)O)=C[C@@H]1N`, which IC50 is on record?
The IC50 was 261 µM.

For `CC(C)C(=O)N[C@H]1[C@H]([C@H](O)[C@H](O)CO)OC(C(=O)O)=C[C@@H]1O`, which IC50 is on record?
Its IC50 is 3.82 µM.

Which IC50 does the source give for `CC(=O)N[C@H]1[C@H]([C@H](O)[C@H](O)CO)OC(C(=O)O)=C[C@@H]1N=[N+]=[N-]` here?
The IC50 was 3.92 µM.

Which IC50 does the source give for `CC(=O)N[C@H]1[C@H]([C@H](O)[C@H](O)CO)OC(C(=O)O)=C[C@@H]1O` here?
The IC50 was 63.8 µM.

Which IC50 does the source give for `CC(C)C(=O)N[C@H]1[C@H]([C@H](O)[C@H](O)CO)OC(C(=O)O)=C[C@@H]1NC(=N)N` here?
The IC50 was over 1000 µM.

Which IC50 does the source give for `[N-]=[N+]=N[C@H]1C=C(C(=O)O)O[C@@H]([C@H](O)[C@H](O)CO)[C@@H]1NC(=O)C1CCC1` here?
Its IC50 is 1.92 µM.
